Drawing on ChEMBL document CHEMBL1136563, “Pharmacophore-based discovery of substituted pyridines as novel dopamine transporter inhibitors” (Bioorg Med Chem Lett, 2003), this text covers Ki for 16 molecules.

The target of assay [1] is Sodium-dependent dopamine transporter (Rattus norvegicus, UniProt P23977). As to the kind of experiment: Inhibition of reuptake of DA into striatal nerve endings (synaptosomes). The format is subcellular, Brain.
Assay [2] concerns the target T1, Sodium-dependent dopamine transporter (Homo sapiens, UniProt Q01959). The assay can be described thus: Inhibition of [3H]DA uptake evaluated at the dopamine transporter.
In assay [3] the target is T1, Sodium-dependent dopamine transporter. As to the kind of experiment: Affinity to displace binding of [3H]WIN-35428 to dopamine transporter.
Assay [4] addresses Sodium-dependent noradrenaline transporter (Homo sapiens, UniProt P23975). As to the kind of experiment: Inhibition of [3H]-NE uptake evaluated at the monoamine transporter (NET).
The target of assay [5] is Sodium-dependent serotonin transporter (Homo sapiens, UniProt P31645). The assay can be described thus: Inhibition of [3H]-5-HT uptake evaluated at the Serotonin transporter.

For orientation: Ki means a measure of affinity in units of concentration, obtained from inhibition or displacement. High values mean weaker binding, low ones tighter binding.

As to `Clc1ccccc1/C=C(/c1ccccc1)c1ccccn1`, in assay [1], the inhibition constant Ki is over 1000 nM.

Consider `c1ccc(Cc2ccnc(Cc3ccccc3)c2)cc1`, for which the Ki in assay [1] was found to be 2300 nM.

Take `c1ccc(-c2nnnn2-c2cnc3ccccc3c2)cc1`: the Ki in assay [1] was over 1000 nM.

Take `CN=C=C(c1ccc(Cl)cc1)c1ccc(Cl)cc1`: the Ki in assay [1] is over 1000 nM.

Turning to `c1ccc(C(c2ccccc2)c2cccnc2)cc1`, the Ki is 860 nM in assay [2], 780 nM in assay [3], 7320 nM in assay [4] and 12600 nM in assay [5].

In assay [1], `c1ccc2cc(-c3nnnn3-c3cnc4ccccc4c3)ccc2c1` had an inhibition constant (Ki) of over 1000 nM.

As for `c1cncc(-c2c3ccccc3cc3ccccc23)c1`, the inhibition constant (Ki) in assay [2], in assay [3], in assay [4] and in assay [5] was over 10000 nM throughout.

With `Clc1cnc(-c2ccccc2)n1Cc1ccccc1`, the inhibition constant Ki in assay [1] is over 1000 nM.

With `c1ccc(C(c2ccccc2)c2ccncc2)cc1`, the inhibition constant Ki stood at 255 nM in assay [2]; 200 nM in assay [1]; 79 nM in assay [3]; 3460 nM in assay [4]; 1160 nM in assay [5].

`c1ccc(CC(c2ccccc2)c2ccncc2)cc1` (configuration not stated): the inhibition constant (Ki) worked out at 263 nM in assay [2], 99 nM in assay [3], 393 nM in assay [4] and 910 nM in assay [5].

The molecule `CN=C=C(c1ccccc1)c1ccccc1` gave a Ki in assay [1] of over 1000 nM.

Regarding `CN(C)CCC(C#N)(c1ccccc1)c1ccccc1`, the inhibitory constant (Ki) in assay [1] was over 1000 nM.

Turning to `c1ccc(C(c2ccccc2)c2ccccn2)cc1`, the Ki is 742 nM in assay [3], 5530 nM in assay [4] and 35000 nM in assay [5].

In the case of `c1ccc2c(-c3ccncc3)c3ccccc3cc2c1`, the Ki in assay [2], in assay [3], in assay [4] and in assay [5] was over 10000 nM each time.

Regarding `c1ccc(Cc2ccncc2)cc1`, the Ki in assay [2], in assay [3], in assay [4] and in assay [5] was over 10000 nM in each case.

In turn, `N#Cc1c(Cl)nnc(-c2ccccc2)c1-c1ccccc1` registered a Ki in assay [1] of over 1000 nM.
